# Measurements as given in PubChem BioAssay AID179 (DTP/NCI, 2004).
# Several values for one entry are separate records, joined by “and”; a condition that tells them apart may be missing. Equal entries are not always repeated. Activity calls are given as the source filed them.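 How the source made its calls: active means compounds giving half or more protection of infected cells from virus-caused growth loss, again on retest; inactive means the rest.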
# Tested on: CEM cells HIV-1 protection, formazan growth assay
# Assay: NCI AIDS Antiviral Assay
# Conditions: for IC50: measured here: growth of uninfected CEM cells
# Procedure, shortened: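 Steps: treat uninfected and HIV-1-infected human CEM cells at five drug levels; quantify growth by soluble formazan; retest any compound reaching 50% protection; classify actives from the retest.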
SMILES,EC50 [µM],IC50,outcome
CN(C)c1ccc(C=C2C=CC=C2)cc1,> 19.1,> 19.1 µM,
CCCCC1N=CNc2c1ccc1c2[nH]c2ccccc21 (stereo not given),> 25.7,6.17 µM,
N#Cc1ccc(/C=C2\CCc3ccccc3C2=O)cc1,> 20,> 20 µM,
CCC(=O)N=c1sc(SCc2ccccc2)nn1C(=O)SC (tested in a mixture with another compound),> 200,10.7 µM,
CCC1=CC2CN3CCc4c([nH]c5ccccc45)[C@@](C(=O)OC)(C2)[C@@H]13,,,inactive
Cc1cc(S(=O)(=O)Nc2nc3ccccc3n2-c2ccccc2)c(S)cc1Cl,> 200,162 µM,
O=C1C2C3CCC(C3)C2S(=O)(=O)C2C3CCC(C3)C12 (stereo not given),> 200,> 200 µM,
CC1=C[C@H]2O[C@@H]3C[C@H]4OC(=O)/C=C\C=C\C(C(C)O)OCC[C@@H](C)[C@H](O)C(=O)OC[C@@]2(CC1)[C@]4(C)[C@]31CO1 (stereo not given in full),> 0.0479,0.000102 µM,
CS1(C)=NC(=O)c2cc([N+](=O)[O-])ccc2N=1,> 123,> 123 µM,
COc1cc(COC(=O)N(C)[C@@H](Cc2ccccc2)C(=O)O)c([N+](=O)[O-])cc1OC,> 603,302 µM,
Cc1nn2c(=O)c([N+](=O)[O-])c(/C=C/c3ccco3)nc2s1,> 200,45.7 µM,
CCC(C)CC(C)CC(C)/C=C(\C)C1=C(C)CC(C)(O)O1 (stereo not given),,,inactive
OCC(O)C1OCOC2COCOC21 (stereo not given),> 200,> 200 µM,
COC(=O)C1=C(O)C(C(=O)OC)C2(C3CC=CC3)C(C(=O)OC)=C(O)C(C(=O)OC)C12 (stereo not given),> 214,> 214 µM,
O=P1(NCCCl)OCCCN1CCCl (stereo not given),> 955,> 955 µM,
Cn1c(O)c(C=Nc2ccccc2Cl)c(=O)n(C)c1=O,,,inactive
O=S1(=O)OC(c2cc(Cl)c(O)c(Br)c2)(c2cc(Cl)c(O)c(Br)c2)c2ccccc21,380,501 µM,
C=C1C(=O)OC2/C=C(\C)C3OC3/C=C(/C(=O)OC)C(O)C(OC(=O)C3(C)OC3C)C12 (stereo not given),> 120,0.302 µM,
Cc1cc(C)nc(NC(=O)Nc2cccc(C(F)(F)F)c2)c1,> 200,> 200 µM,
O=C(CC1(O)C(=O)Nc2ccc([N+](=O)[O-])cc21)c1ccncc1 (stereo not given),> 20.9,> 20.9 µM,
O=C(C[P+](c1ccccc1)(c1ccccc1)c1ccccc1)c1ccccc1,> 200,32.4 µM and 31.6 µM and 37.2 µM,

SMILES,EC50 [µM],IC50,outcome
NS(=O)(=O)c1ccc(NCc2cccc3c(=O)c4ccc(Cl)cc4oc23)cc1,> 100,4.07 µM,
c1cncc(C2N3CCCCC3[C@@H]3c4[nH]c5ccccc5c4CCN23)c1 (stereo not given in full),> 97.7,> 97.7 µM,
CCCCN(C(=O)c1ccccc1)C1CCC(=O)c2[nH]c3ccccc3c21 (stereo not given),> 200,17 µM,
O=C1NNC2NC(=O)C3(NN2C1=O)c1ccccc1-c1ccccc13 (stereo not given),> 100,> 100 µM,
Cc1cc(C)nc(NS(=O)(=O)c2ccc(NNc3c4ccccc4nc4c(C(=O)Nc5ccc(S(=O)(=O)Nc6cc(C)on6)cc5)cccc34)cc2)n1,> 200,34.7 µM,
NCc1ccccc1-c1c2nc(c(-c3ccccc3CN)c3ccc([nH]3)c(-c3ccccc3CN)c3nc(c(-c4ccccc4CN)c4ccc1[nH]4)C=C3)C=C2,> 9.77,> 9.77 µM,
COc1ccc(CNC(=O)NCn2cc(-c3ccccc3)nn2)cc1,> 200,> 200 µM,
O=C(Cn1nc(Br)c(Br)c1Br)c1ccccc1,> 200,19.5 µM,
Cc1ccc2nc(-c3ccc(C(C)(C)C)cc3)oc(=O)c2c1,> 200,23.4 µM,
CCCCCCCCCCCCCCCCCCOCC(O)CO (stereo not given),> 3.02,> 3.02 µM,
COc1ccc(NC(=S)N/N=C(/C)c2ccccn2)cc1,> 0.2,0.115 µM,
Nc1nc2c(c(=O)[nH]1)N=C(COP(=O)(O)OP(=O)(O)O)CN2,> 200,145 µM,
Cc1ccccc1NC(=O)CSc1nnc(-c2ccc(N=Cc3ccc(Cl)cc3)cc2)o1,> 389,5.62 µM,
Cc1ccc2c(ccc(/C=C/c3ccc(O)c4ncccc34)[n+]2C)c1,> 28.8,5.89 µM,
COC1=C(C2=NC(C)(C)CO2)c2ccccc2C(C/C=C/[Si](C)(C)C)C1 (stereo not given),> 26.9,> 26.9 µM,
CC#CC(O)(C(=O)OCCCN(C)C)C1CCCCC1 (stereo not given),> 200,> 200 µM,
CC1(C)CC2(C)CC1CC2NC(=O)CCN1CCOCC1 (stereo not given),> 851,676 µM,
Nc1ncnc(N)c1N=O,> 200,5.89 µM and 1.62 µM,
Cc1nc(Cl)c(Cl)c(Cl)n1,,,inactive
COC(=O)c1cc(Cc2cc(Br)c(OC)c(C(=O)OC)c2)cc(Br)c1OC,> 200,162 µM,
NS(=O)(=O)c1nn2c(Br)c(-c3ccccc3)nc2s1,> 200,1.78 µM,
